# Experimental data published in US20020137929A1, “1 - (3-heterocyclylphenyl) isothiourea, -isourea, -guanidine and -amidine herbicidal agents” (Intellectual Property Department, BASF Aktiengesellschaft, priority 1998, published 2002).
# Legend:
# [1] = system: IPOHE (Morningglory, Ivyleaf); test: Postemergence herbicidal evaluation; assay type: in vivo, Ipomoea hederacea; settings: postemergence
# In short: (§1)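 Herbicidal effect was judged by eye on a 0–9 scale covering stand, vigor, deformity, size and chlorosis, compared with controls, four to five weeks after seedlings about two weeks old were sprayed (40 psi, ~0.0156–0.500 kg/ha).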
# [2] = system: IPOHE (Morningglory, Ivyleaf); test: Preemergence herbicidal evaluation; assay type: in vivo, Ipomoea hederacea; settings: rated 4-5 weeks after treatment
# In short: (§2)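 Test compound, dissolved in aqueous acetone, was sprayed over planted soil cups at an equivalent of about 0.0156 to 0.500 kg/ha; seeds had been mixed with potting soil. Greenhouse growth followed, with visual 0-9 scoring of injury at four to five weeks.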
# [3] = system: CHEAL (Lambsquarters, Common); test: Postemergence herbicidal evaluation; assay type: in vivo, Chenopodium album; settings: postemergence
# In short: as §1
# MOOVA (Monochoria) = test: Preemergence weed control under flooded paddy conditions; assay type: in vivo, Monochoria vaginalis; settings: rated 3-4 weeks after treatment
# In short: (§3)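 Seeds or propagules sown in top 0.5 cm of silt loam soil, flooded 1.5 to 3 cm above surface throughout. Compound in 50/50 v/v aqueous/acetone pipetted into flood water at about 0.0313 to 0.500 kg/ha. Visual 0-9 rating versus control after three to four weeks in greenhouse.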
# ABUTH (Velvetleaf) = test: Preemergence herbicidal evaluation; assay type: in vivo, Abutilon theophrasti; settings: rated 4-5 weeks after treatment
# In short: as §2
# CASOB (Sicklepod) [4] = test: Postemergence herbicidal evaluation; assay type: in vivo, Cassia obtusifolia; settings: postemergence
# In short: as §1
# AMBEL (Ragweed, Common) [5] = test: Postemergence herbicidal evaluation; assay type: in vivo, Ambrosia artemisifolia; settings: postemergence
# In short: as §1
# [6] = system: TRZAWR (Wheat, Winter, cv Riband); test: Postemergence herbicidal evaluation; assay type: in vivo, Triticum aestivum; settings: postemergence
# In short: as §1
# [7] = system: GLXMAW (Soybean, Williams); test: Postemergence herbicidal evaluation; assay type: in vivo, Glycine max, (L.) Merr. cv Williams; settings: postemergence
# In short: as §1
# ORYSAT (Rice, Tebonnet) = test: Preemergence herbicidal evaluation; assay type: in vivo, Oryza sativa, (L.) Tebonnet; settings: rated 4-5 weeks after treatment
# In short: as §2
# [8] = system: SAGPY (Arrowhead (Pygmaea)); test: Preemergence weed control under flooded paddy conditions; assay type: in vivo, Sagittaria pygmaea; settings: rated 3-4 weeks after treatment
# In short: as §3
# AMBEL (Ragweed, Common) [9] = test: Preemergence herbicidal evaluation; assay type: in vivo, Ambrosia artemisifolia; settings: rated 4-5 weeks after treatment
# In short: as §2
# [10] = system: CHEAL (Lambsquarters, Common); test: Preemergence herbicidal evaluation; assay type: in vivo, Chenopodium album; settings: rated 4-5 weeks after treatment
# In short: as §2
# [11] = system: GLXMAW (Soybean, Williams); test: Preemergence herbicidal evaluation; assay type: in vivo, Glycine max, (L.) Merr. cv Williams; settings: rated 4-5 weeks after treatment
# In short: as §2
# ECHCG (Barnyardgrass) = test: Postemergence herbicidal evaluation; assay type: in vivo, Echinochloa crus-galli; settings: postemergence
# In short: as §1
# CASOB (Sicklepod) [12] = test: Preemergence herbicidal evaluation; assay type: in vivo, Cassia obtusifolia; settings: rated 4-5 weeks after treatment
# In short: as §2
structure (smiles),measurement,setting,value
"CCOC(=O)CN1C(=O)C(C(=O)OC)SC1=Nc1cc(-n2c(=O)cc(C(F)(F)F)n(C)c2=O)c(F)cc1Cl (stereo not drawn) [Compound 128, 5-Carboxy-2-{{2-chloro-5-[3,6-dihydro-3-methyl-2,6-dioxo-4-(trifluoromethyl)-1(2H)-pyrimidinyl]-4-fluorophenyl}imino}-4-oxo-3-thiazolidineacetic acid, 3-ethyl methyl ester]",Herbicidal rating IPOHE,[1]; rate 0.0156 kg/ha,9.0
same,Herbicidal rating IPOHE,[1]; rate 0.0313 kg/ha,9.0
same,Herbicidal rating IPOHE,[1]; rate 0.0625 kg/ha,9.0
same,Preemergence herbicidal rating IPOHE,[2]; rate 0.0156 kg/ha,0.0
same,Preemergence herbicidal rating IPOHE,[2]; rate 0.0313 kg/ha,0.0
same,Preemergence herbicidal rating IPOHE,[2]; rate 0.0625 kg/ha,4.0
same,Preemergence herbicidal rating IPOHE,[2]; rate 0.1250 kg/ha,9.0
same,Preemergence herbicidal rating IPOHE,[2]; rate 0.2500 kg/ha,7.0
same,Herbicidal rating CHEAL,[3]; rate 0.0156 kg/ha,4.0
same,Herbicidal rating CHEAL,[3]; rate 0.0313 kg/ha,9.0
same,Herbicidal rating CHEAL,[3]; rate 0.0625 kg/ha,9.0
same,"herbicidal effect rating, MOOVA",MOOVA (Monochoria); 0.0313 kg/ha,6.0
same,"herbicidal effect rating, MOOVA",MOOVA (Monochoria); 0.0625 kg/ha,7.0
same,"herbicidal effect rating, MOOVA",MOOVA (Monochoria); 0.1250 kg/ha,9.0
same,"herbicidal effect rating, MOOVA",MOOVA (Monochoria); 0.2500 kg/ha,9.0
same,Preemergence herbicidal rating ABUTH,ABUTH (Velvetleaf); rate 0.0156 kg/ha,0.0
same,Preemergence herbicidal rating ABUTH,ABUTH (Velvetleaf); rate 0.0313 kg/ha,0.0
same,Preemergence herbicidal rating ABUTH,ABUTH (Velvetleaf); rate 0.0625 kg/ha,1.0
same,Preemergence herbicidal rating ABUTH,ABUTH (Velvetleaf); rate 0.1250 kg/ha,3.0
same,Preemergence herbicidal rating ABUTH,ABUTH (Velvetleaf); rate 0.2500 kg/ha,9.0
same,Herbicidal rating CASOB,CASOB (Sicklepod) [4]; rate 0.0156 kg/ha,1.0
same,Herbicidal rating CASOB,CASOB (Sicklepod) [4]; rate 0.0313 kg/ha,1.0
same,Herbicidal rating CASOB,CASOB (Sicklepod) [4]; rate 0.0625 kg/ha,7.0
same,Herbicidal rating AMBEL,"AMBEL (Ragweed, Common) [5]; rate 0.0156 kg/ha",7.0
same,Herbicidal rating AMBEL,"AMBEL (Ragweed, Common) [5]; rate 0.0313 kg/ha",9.0
same,Herbicidal rating AMBEL,"AMBEL (Ragweed, Common) [5]; rate 0.0625 kg/ha",9.0
same,Herbicidal rating TRZAWR,[6]; rate 0.0156 kg/ha,2.0
same,Herbicidal rating TRZAWR,[6]; rate 0.0313 kg/ha,3.0
same,Herbicidal rating TRZAWR,[6]; rate 0.0625 kg/ha,3.5
same,Herbicidal rating GLXMAW,[7]; rate 0.0156 kg/ha,4.5
same,Herbicidal rating GLXMAW,[7]; rate 0.0313 kg/ha,4.5
same,Herbicidal rating GLXMAW,[7]; rate 0.0625 kg/ha,6.0
same,Preemergence herbicidal rating ORYSAT,"ORYSAT (Rice, Tebonnet); rate 0.0156 kg/ha",0.0
same,Preemergence herbicidal rating ORYSAT,"ORYSAT (Rice, Tebonnet); rate 0.0313 kg/ha",0.0
same,Preemergence herbicidal rating ORYSAT,"ORYSAT (Rice, Tebonnet); rate 0.0625 kg/ha",0.0
same,Preemergence herbicidal rating ORYSAT,"ORYSAT (Rice, Tebonnet); rate 0.1250 kg/ha",0.0
same,Preemergence herbicidal rating ORYSAT,"ORYSAT (Rice, Tebonnet); rate 0.2500 kg/ha",0.0
same,"herbicidal effect rating, SAGPY",[8]; 0.0313 kg/ha,0.0
same,"herbicidal effect rating, SAGPY",[8]; 0.0625 kg/ha,3.0
same,"herbicidal effect rating, SAGPY",[8]; 0.1250 kg/ha,4.0
same,"herbicidal effect rating, SAGPY",[8]; 0.2500 kg/ha,6.0
same,Preemergence herbicidal rating AMBEL,"AMBEL (Ragweed, Common) [9]; rate 0.0156 kg/ha",0.0
same,Preemergence herbicidal rating AMBEL,"AMBEL (Ragweed, Common) [9]; rate 0.0313 kg/ha",0.0
same,Preemergence herbicidal rating AMBEL,"AMBEL (Ragweed, Common) [9]; rate 0.0625 kg/ha",0.0
same,Preemergence herbicidal rating AMBEL,"AMBEL (Ragweed, Common) [9]; rate 0.1250 kg/ha",2.0
same,Preemergence herbicidal rating AMBEL,"AMBEL (Ragweed, Common) [9]; rate 0.2500 kg/ha",3.0
same,Preemergence herbicidal rating CHEAL,[10]; rate 0.0156 kg/ha,9.0
same,Preemergence herbicidal rating CHEAL,[10]; rate 0.0313 kg/ha,7.0
same,Preemergence herbicidal rating CHEAL,[10]; rate 0.0625 kg/ha,9.0
same,Preemergence herbicidal rating CHEAL,[10]; rate 0.1250 kg/ha,9.0
same,Preemergence herbicidal rating CHEAL,[10]; rate 0.2500 kg/ha,9.0
same,Preemergence herbicidal rating GLXMAW,[11]; rate 0.0156 kg/ha,0.0
same,Preemergence herbicidal rating GLXMAW,[11]; rate 0.0313 kg/ha,0.0
same,Preemergence herbicidal rating GLXMAW,[11]; rate 0.0625 kg/ha,0.0
same,Preemergence herbicidal rating GLXMAW,[11]; rate 0.1250 kg/ha,0.0
same,Preemergence herbicidal rating GLXMAW,[11]; rate 0.2500 kg/ha,0.0
same,Herbicidal rating ECHCG,ECHCG (Barnyardgrass); rate 0.0156 kg/ha,1.0
same,Herbicidal rating ECHCG,ECHCG (Barnyardgrass); rate 0.0313 kg/ha,2.0
same,Herbicidal rating ECHCG,ECHCG (Barnyardgrass); rate 0.0625 kg/ha,1.0
same,Preemergence herbicidal rating CASOB,CASOB (Sicklepod) [12]; rate 0.0156 kg/ha,0.0
same,Preemergence herbicidal rating CASOB,CASOB (Sicklepod) [12]; rate 0.0313 kg/ha,1.0
same,Preemergence herbicidal rating CASOB,CASOB (Sicklepod) [12]; rate 0.0625 kg/ha,1.0
same,Preemergence herbicidal rating CASOB,CASOB (Sicklepod) [12]; rate 0.2500 kg/ha,0.0
